Reference: article PMC12498190, “A Photocaged N‐Phosphonopiperidinone as a Selective Photo‐Cleavable DPP8/9 Inhibitor” (Chembiochem, 2025)
Where two headings read alike, the source gives them in different places.

Experiments:
DPP9 [1] = target: T1, DPP9 (Homo sapiens, UniProt Q86TI2); test: DPP9 enzyme inhibition assay, AMC release from GP-AMC; assay type: biochemical; set-up: purchased Proteros Biostructures GmbH, Germany; conditions: for IC50: read-out: Apparent IC50
Text: We then continued to investigate the biochemical properties of the photocaged compound 5 versus the photoreleased product resembling inhibitor 1. To this end, we performed biochemical enzyme inhibition assays with DPP8 and DPP9 before and after irradiation of 5. Resulting DPP8/9 inhibition was quantified by following the DPP8‐ or DPP9‐mediated proteolysis of the fluorophore 7‐amino‐4‐methylcoumarin (AMC) from the model substrate Gly‐Pro‐AMC (Figure 1C,D and Table 1 ). To induce photocleavage of 5, reaction mixtures were irradiated for 5 min with the same green LED lamp as before, followed by a pre‐incubation of 45 min with the photoreleased inhibitor prior to substrate addition.
Enzyme activity of human DPP4, DPP8, and DPP9 (Proteros Biostructures GmbH, Germany) was determined by measuring the initial velocity of AMC release from the fluorogenic substrate GP‐AMC (Sigma Aldrich, USA) using a Tecan Spark 10 M multimode microplate reader (Tecan Group Ltd., Switzerland) in activity buffer (20 mM HEPES/KOH pH 7.3, 110 mM potassium acetate, 2 mM magnesium acetate, 0.5 mM EGTA, 0.02% Tween 20, supplemented with 1 mM DTT) and a final volume of 20 μL for maximal 30 min at 30 °C. Prior to the activity measurement, 10 nM of the corresponding enzyme was incubated for 45 min at 30 °C and gentle shaking with the indicated compounds at concentrations ranging from 0 to 100 μM, followed by irradiation with a green LED lamp (λ = 520−530 nm; Eurolite, Germany) for 5 min. The corresponding compounds were dissolved in DMSO and diluted in activity buffer (final DMSO concentration: 1%). To the inhibitor–enzyme mixture, GP‐AMC was then added to a final concentration of 250 μM, and the activity measurement was started. The resulting enzyme activity was calculated from the slope (fluorescence release over time) and plotted against the concentrations of the inhibitor. Apparent IC50 values were calculated using Graph‐Pad Prism v10.4.1 using the equation: [Inhibitor] versus response‐Variable slope (four parameters). All measurements were performed in triplicate, and error bars represent standard errors of the fit.

DPP9 [2] = target: T1, DPP9; test: In situ competitive ABPP in HEK293 cell culture, 100 kDa band; assay type: cell-based; set-up: endogenous in cells; host or cells: HEK293 (Cytion, Germany, 300192); conditions: pre-incubation 1 h with 20 µM or 10 µM (method), 10 µM 2 for 1 h, light 5 min
Experimental: Figure 2 Competitive ABPP with photo‐cleavable inhibitor 5 in HEK293 cells. A) Schematic overview of a competitive ABPP experiment. A proteome is pre‐incubated with a competitor, followed by a labeling reaction with an activity‐based probe (ABP). In the case of a photocaged inhibitor, the active compound can be released via irradiation. Target proteins of the competitor cannot be bound by the ABP, resulting in an absence of the respective protein band in‐gel analysis. Created in BioRender. Najdzion, M. (2025) https://BioRender.com/84zn8cb B) Gel‐based competitive ABPP experiment in HEK293 cell lysates with the broadband serine hydrolase ABP ≡FP or the DPP8/9‐directed ABP 2 and the photocaged inhibitor 5, at the indicated concentrations, after or without prior irradiation with green light for 5 min. The corresponding pre‐incubation time for 5 was 30 min. C) Corresponding in situ competitive ABPP experiment in HEK293 cell culture, again with 10 µM 2 for 1 h. […] HEK293 cells were irradiated with a green LED lamp in the presence of 0.5% DMSO for 5 min (‘light’), and cell viability was measured after 24 h. […] For both compounds, cell viability was measured under ‘dark’ (not irradiated) and ‘light’ (irradiated for 5 min with a green LED lamp after the addition of the inhibitor) conditions. […]

T1 sequence (Q86TI2 whole entry): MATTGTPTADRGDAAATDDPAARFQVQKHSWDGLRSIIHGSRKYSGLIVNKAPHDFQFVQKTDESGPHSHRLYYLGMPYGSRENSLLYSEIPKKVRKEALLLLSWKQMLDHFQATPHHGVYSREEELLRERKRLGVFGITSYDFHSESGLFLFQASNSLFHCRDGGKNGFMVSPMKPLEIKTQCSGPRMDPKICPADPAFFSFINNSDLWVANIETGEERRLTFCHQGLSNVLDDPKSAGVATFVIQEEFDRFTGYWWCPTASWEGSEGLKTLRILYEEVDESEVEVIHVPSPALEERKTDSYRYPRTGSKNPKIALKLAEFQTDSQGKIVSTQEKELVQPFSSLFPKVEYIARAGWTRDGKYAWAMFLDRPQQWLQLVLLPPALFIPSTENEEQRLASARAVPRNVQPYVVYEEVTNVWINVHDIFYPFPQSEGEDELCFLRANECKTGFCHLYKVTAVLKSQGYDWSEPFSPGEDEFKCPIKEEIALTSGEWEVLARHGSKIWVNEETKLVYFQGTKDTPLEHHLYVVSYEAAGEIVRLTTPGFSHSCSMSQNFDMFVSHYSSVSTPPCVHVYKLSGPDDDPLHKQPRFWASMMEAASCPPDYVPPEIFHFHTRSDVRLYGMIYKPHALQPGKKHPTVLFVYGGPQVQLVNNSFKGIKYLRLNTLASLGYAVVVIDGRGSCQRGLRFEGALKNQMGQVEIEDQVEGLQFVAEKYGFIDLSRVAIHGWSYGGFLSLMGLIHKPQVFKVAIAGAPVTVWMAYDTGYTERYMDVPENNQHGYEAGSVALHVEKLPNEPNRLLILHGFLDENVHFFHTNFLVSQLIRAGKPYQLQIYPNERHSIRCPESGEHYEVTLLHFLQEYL

CCCCCc1ccc(SCCP(=O)(OCC)N2CCC[C@H](NC(=O)OCC3=C4C(C)=CC(C)=[N+]4[B-](C)(C)n4c(C)cc(C)c43)C2=O)cc1 (stereo partly drawn) [Compound 5]
Dark/light ratio of apparent IC50 (DPP9 [1]): 40
Increase in potency after green light-mediated photorelease (DPP9 [1]; apparent IC50 dark vs light): ~40 fold
IC50 (DPP9 [1]; dark (without green light irradiation), 45 min pre-incubation): 24.7 µM
IC50 (DPP9 [1]; light (5 min green LED, 520-530 nm), 45 min pre-incubation): 0.621 ± 0.054 µM
IC50 (DPP9 [1]; without irradiation): 24.7 ± 6.8 µM
Competition of DPP9 labeling in live cells (in words) (DPP9 [2]): completely inhibited
